Among the data in ChEMBL document CHEMBL1201862, “PubChem BioAssay data set” (2004) are IC50, AC50 and EC50 values, retold here.

Activity calls are given as the source filed them.

Test [1] has as its target Dual specificity protein phosphatase 3 (Homo sapiens, UniProt P51452). The test can be described thus: VHR phosphatase inhibition, dose response, selectivity assay for STEP inhibitor project, biochemical (AID 602374). It counts as functional. The conditions noted are these: read-out: IC50_Mean.
Test [2] addresses T1, Tyrosine-protein phosphatase non-receptor type 11 (Homo sapiens, UniProt Q06124).
T1 sequence (Q06124 whole entry): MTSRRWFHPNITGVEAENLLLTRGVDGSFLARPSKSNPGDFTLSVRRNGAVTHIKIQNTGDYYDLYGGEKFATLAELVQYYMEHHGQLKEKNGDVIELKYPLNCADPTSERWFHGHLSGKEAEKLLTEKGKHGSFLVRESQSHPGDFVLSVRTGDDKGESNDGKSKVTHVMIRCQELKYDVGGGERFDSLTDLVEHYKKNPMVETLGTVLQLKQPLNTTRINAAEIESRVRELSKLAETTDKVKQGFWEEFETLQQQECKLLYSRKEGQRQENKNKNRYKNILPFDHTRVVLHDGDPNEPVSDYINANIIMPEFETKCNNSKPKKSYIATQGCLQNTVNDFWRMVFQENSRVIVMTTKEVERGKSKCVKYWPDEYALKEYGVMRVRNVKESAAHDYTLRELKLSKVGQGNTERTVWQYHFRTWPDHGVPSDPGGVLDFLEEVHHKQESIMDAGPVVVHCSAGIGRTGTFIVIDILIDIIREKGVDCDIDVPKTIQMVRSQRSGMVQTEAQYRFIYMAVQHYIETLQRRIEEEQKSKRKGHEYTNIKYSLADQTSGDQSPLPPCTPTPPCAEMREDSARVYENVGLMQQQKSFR
The test can be described thus: PTPN11 enzyme inhibitors – biochemical, selectivity assay for STEP inhibitor project, dose response (AID 602367). It counts as functional. As to conditions: read-out: IC50_Mean.

For test [3], the target named is T2, Tyrosine-protein phosphatase non-receptor type 5 (Homo sapiens, UniProt P54829).
T2 sequence (P54829 whole entry): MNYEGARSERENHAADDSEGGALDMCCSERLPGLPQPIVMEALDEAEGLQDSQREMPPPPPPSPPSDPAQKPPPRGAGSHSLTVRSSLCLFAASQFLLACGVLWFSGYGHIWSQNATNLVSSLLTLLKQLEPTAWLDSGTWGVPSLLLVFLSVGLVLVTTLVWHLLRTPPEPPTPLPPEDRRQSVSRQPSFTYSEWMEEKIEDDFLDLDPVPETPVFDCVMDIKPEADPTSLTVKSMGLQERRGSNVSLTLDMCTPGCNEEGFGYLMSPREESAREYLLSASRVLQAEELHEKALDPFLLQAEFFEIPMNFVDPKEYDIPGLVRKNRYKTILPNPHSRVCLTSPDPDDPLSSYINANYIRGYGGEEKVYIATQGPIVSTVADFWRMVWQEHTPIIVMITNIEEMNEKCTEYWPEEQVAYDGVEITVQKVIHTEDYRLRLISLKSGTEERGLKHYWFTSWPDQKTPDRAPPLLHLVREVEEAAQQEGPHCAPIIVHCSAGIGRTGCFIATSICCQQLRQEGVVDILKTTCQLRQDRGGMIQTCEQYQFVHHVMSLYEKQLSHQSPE
The test can be described thus: PTPN5 enzyme inhibition – biochemical, fluorescence intensity, uHTS hits, confirmation (AID 602372). It counts as functional. As to conditions: read-out: IC50_Mean.

Test [4] addresses T3, Tyrosine-protein phosphatase non-receptor type 22 (Homo sapiens, UniProt Q9Y2R2).
T3 sequence (Q9Y2R2 whole entry): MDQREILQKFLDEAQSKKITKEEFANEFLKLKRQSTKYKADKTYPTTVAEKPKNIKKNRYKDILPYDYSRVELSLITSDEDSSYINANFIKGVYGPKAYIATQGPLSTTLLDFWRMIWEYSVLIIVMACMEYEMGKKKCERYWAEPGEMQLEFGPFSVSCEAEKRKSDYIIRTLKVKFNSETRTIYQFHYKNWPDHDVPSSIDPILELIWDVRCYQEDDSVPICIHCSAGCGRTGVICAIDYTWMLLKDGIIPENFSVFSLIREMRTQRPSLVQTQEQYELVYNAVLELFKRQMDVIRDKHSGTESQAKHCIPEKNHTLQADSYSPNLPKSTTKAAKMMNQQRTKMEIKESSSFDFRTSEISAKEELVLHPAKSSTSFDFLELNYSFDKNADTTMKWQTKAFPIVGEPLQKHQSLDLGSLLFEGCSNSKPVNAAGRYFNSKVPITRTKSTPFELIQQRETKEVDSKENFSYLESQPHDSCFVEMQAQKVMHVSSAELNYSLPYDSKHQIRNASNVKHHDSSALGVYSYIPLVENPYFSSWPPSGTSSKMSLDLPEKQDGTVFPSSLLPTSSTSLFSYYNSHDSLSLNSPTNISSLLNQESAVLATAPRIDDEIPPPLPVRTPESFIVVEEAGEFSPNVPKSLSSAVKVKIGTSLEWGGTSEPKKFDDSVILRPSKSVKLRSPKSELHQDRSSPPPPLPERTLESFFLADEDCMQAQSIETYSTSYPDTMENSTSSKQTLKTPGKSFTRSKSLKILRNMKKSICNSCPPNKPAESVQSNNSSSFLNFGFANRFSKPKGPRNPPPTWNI
The test can be described thus: lymphoid phosphatase LYP inhibitors – biochemical, selectivity assay for STEP inhibitor project, dose response (AID 624241). It counts as functional.

In test [5] the target is T4, Carboxy-terminal domain RNA polymerase II polypeptide A small phosphatase 1 (Homo sapiens, UniProt Q9GZU7).
T4 sequence (Q9GZU7 whole entry): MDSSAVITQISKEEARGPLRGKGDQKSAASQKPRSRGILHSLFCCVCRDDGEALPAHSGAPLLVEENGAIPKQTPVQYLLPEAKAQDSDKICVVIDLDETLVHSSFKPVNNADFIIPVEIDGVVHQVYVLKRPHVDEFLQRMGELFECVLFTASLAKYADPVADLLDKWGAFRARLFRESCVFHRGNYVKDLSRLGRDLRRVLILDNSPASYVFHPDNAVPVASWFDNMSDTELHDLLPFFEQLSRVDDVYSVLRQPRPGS
The test can be described thus: CTDSP1 inhibitors, concentration-response, biochemical, absorbance readout, ultra-high-throughput screen actives (AID 540297). It counts as functional.

Test [6] concerns the target T5, Protein disulfide-isomerase (Homo sapiens, UniProt P07237). The test can be described thus: inhibition of PDI-mediated insulin reduction – biochemical, turbidity, absorbance, cherry-picked samples, set 2, dose response (AID 624274). It counts as functional.
The target in test [7] is T6, Zinc finger protein mex-5 (Caenorhabditis elegans, UniProt Q9XUB2).
T6 sequence (Q9XUB2 whole entry): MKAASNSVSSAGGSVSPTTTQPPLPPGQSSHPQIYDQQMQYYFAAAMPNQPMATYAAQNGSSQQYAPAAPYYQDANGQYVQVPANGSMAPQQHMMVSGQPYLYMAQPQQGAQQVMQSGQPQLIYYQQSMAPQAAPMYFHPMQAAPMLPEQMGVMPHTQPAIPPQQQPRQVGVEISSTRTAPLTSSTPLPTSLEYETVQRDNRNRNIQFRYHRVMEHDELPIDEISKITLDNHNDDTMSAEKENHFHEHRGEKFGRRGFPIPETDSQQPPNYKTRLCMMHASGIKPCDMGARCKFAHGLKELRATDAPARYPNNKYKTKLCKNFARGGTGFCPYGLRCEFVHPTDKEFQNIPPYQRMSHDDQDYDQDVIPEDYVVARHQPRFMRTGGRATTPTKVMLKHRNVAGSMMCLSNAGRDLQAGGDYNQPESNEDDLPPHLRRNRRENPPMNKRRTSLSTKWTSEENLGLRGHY
The test can be described thus: potency of MEX-5 RNA-binding blockers – biochemical, C. elegans, fluorescence polarization, dose response (AID 1960). A general note: Fluorescence polarisation rises when a labelled molecule tumbles more slowly, as on binding a larger partner.

Test [8] has as its target T7, RNA-binding protein pos-1 (Caenorhabditis elegans, UniProt G5EF15).
T7 sequence (G5EF15 whole entry): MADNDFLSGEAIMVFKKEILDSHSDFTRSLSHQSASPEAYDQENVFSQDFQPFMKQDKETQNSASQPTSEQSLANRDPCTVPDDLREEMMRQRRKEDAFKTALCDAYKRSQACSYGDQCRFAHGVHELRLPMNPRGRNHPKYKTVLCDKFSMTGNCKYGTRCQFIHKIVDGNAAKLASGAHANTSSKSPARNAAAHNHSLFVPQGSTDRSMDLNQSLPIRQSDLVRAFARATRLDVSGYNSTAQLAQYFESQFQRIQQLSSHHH
The test can be described thus: disruptors of C. elegans POS-1 RNA interaction – biochemical, fluorescence polarization, dose response (AID 1964).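 Also: purified POS-1 fused to maltose binding protein made in E. coli; potency of compounds blocking POS-1 binding to fluorescent RNA.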

The next test addresses ORF 73 (Human herpesvirus 8, UniProt O40947). The test can be described thus: KSHV LANA DNA-binding disruption – biochemical, fluorescence polarization, cherry-picked samples, dose response (AID 504725).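 Also: fluorescence polarization of a labeled DNA duplex reporting LANA DNA binding; potency is for inhibitors that block LANA binding to the DNA.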 On the set-up: species or system Human gammaherpesvirus 8.
Test [9] addresses T8, Histone-lysine N-methyltransferase NSD2 (Homo sapiens, UniProt O96028).
T8 sequence (O96028 whole entry): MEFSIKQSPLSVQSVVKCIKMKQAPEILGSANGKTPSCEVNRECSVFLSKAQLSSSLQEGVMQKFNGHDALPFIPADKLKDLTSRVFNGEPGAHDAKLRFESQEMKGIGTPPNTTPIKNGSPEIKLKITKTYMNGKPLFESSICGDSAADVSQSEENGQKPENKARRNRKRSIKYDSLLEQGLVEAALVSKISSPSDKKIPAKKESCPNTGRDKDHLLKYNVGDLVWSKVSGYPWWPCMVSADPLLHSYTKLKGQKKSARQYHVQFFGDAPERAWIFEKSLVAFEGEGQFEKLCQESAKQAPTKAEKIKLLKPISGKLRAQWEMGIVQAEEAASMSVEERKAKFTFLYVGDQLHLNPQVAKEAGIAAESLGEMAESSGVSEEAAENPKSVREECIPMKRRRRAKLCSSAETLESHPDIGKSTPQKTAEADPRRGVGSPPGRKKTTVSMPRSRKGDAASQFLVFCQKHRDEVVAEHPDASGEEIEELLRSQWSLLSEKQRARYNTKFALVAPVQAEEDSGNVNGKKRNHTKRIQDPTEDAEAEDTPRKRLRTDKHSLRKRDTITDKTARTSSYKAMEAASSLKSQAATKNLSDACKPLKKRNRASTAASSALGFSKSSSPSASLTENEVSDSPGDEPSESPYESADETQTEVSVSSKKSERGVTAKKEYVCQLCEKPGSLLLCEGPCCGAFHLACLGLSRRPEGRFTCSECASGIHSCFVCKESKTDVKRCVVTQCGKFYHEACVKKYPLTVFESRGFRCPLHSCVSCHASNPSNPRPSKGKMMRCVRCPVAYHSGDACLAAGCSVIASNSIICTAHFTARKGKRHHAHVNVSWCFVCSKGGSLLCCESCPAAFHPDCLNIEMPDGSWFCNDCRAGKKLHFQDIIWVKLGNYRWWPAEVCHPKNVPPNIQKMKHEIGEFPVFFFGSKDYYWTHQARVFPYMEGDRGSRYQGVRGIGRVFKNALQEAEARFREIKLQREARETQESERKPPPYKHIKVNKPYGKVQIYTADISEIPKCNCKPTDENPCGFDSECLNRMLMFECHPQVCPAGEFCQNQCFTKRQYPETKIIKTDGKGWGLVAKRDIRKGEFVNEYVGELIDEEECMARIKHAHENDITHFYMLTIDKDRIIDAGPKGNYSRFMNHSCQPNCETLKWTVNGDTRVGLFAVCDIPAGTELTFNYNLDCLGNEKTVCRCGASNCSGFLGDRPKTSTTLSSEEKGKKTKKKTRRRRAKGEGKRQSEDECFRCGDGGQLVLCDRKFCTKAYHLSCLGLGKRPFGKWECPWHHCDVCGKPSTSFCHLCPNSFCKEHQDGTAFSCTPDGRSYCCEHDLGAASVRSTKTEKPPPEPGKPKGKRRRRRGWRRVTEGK
It counts as biochemical.

Another test has as its target T9, Leucine aminopeptidase (Plasmodium falciparum 3D7, UniProt Q8IL11).
T9 sequence (Q8IL11 whole entry): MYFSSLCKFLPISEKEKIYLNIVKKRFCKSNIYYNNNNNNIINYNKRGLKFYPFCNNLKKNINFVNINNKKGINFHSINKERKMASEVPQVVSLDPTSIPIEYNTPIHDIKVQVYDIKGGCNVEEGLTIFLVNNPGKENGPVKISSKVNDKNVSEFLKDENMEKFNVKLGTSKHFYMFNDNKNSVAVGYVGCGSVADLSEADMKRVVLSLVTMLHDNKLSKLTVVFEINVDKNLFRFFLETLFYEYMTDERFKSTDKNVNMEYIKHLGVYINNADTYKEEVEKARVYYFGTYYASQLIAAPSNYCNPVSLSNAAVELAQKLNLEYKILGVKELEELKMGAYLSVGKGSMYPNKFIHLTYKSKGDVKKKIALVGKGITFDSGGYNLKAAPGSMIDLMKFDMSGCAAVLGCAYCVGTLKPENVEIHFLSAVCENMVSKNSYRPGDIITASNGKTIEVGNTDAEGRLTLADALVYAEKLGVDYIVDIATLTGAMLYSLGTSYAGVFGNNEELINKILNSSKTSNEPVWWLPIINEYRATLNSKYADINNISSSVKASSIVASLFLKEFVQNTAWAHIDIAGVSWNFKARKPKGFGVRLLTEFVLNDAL
The test can be described thus: P. falciparum M17LAP inhibitors, primary screen, biochemical, fluorogenic H-Leu-NHMec substrate, 1536-well (AID 1619). It counts as functional.

The target in test [10] is T5, Protein disulfide-isomerase. The test can be described thus: inhibition of PDI-driven insulin aggregation – biochemical, turbidity, absorbance, cherry-picked samples, dose response (AID 602350). It counts as functional.

T5 sequence (P07237 whole entry): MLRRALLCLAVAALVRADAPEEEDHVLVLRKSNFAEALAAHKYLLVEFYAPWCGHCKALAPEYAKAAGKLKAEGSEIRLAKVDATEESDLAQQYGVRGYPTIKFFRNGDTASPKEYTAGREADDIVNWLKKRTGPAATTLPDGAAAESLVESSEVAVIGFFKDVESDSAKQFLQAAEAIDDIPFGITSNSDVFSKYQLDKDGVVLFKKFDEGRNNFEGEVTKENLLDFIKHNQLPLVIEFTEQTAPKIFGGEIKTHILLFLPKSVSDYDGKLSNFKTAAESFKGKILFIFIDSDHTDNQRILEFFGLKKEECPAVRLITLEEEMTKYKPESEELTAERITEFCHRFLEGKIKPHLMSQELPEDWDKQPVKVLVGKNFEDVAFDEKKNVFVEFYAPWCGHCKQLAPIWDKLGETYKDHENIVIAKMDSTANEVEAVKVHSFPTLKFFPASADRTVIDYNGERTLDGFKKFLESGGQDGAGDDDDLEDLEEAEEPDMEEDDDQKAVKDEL
Sequence of ORF 73 (O40947 whole entry): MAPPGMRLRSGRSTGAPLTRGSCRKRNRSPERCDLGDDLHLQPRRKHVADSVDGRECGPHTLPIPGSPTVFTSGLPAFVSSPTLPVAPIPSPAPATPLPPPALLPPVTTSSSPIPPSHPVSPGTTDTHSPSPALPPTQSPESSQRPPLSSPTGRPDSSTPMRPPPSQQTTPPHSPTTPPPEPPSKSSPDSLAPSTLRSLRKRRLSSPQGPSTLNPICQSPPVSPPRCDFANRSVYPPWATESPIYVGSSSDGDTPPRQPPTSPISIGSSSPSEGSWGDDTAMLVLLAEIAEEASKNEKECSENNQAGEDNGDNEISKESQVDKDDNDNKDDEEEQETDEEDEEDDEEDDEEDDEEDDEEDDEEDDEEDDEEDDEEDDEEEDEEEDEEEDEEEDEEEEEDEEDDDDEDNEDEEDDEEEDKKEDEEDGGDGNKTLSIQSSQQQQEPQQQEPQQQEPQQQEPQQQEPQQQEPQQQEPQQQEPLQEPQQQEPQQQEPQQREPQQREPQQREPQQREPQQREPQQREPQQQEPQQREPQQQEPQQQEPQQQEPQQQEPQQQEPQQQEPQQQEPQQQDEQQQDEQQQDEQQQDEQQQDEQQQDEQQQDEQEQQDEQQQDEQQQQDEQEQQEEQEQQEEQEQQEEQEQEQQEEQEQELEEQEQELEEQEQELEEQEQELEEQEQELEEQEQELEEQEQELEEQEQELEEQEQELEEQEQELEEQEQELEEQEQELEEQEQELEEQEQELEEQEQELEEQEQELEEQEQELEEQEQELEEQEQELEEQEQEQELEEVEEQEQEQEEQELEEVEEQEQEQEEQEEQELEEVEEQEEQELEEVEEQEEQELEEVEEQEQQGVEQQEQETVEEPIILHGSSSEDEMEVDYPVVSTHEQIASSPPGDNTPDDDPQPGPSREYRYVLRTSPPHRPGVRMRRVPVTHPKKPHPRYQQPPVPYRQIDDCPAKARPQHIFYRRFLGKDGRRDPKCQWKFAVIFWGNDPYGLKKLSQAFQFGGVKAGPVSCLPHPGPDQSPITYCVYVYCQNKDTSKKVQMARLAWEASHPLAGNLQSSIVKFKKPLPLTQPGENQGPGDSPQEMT
Sequence of Dual specificity protein phosphatase 3 (P51452 whole entry): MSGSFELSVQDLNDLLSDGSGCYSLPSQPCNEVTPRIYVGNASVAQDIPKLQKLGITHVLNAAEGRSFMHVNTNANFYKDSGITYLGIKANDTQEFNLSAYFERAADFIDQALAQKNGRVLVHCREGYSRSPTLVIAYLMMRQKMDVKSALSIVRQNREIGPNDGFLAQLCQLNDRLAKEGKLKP

As to `COc1ccc2cc3c(N)nn(C(=O)c4cccc(F)c4)c3nc2c1`, the IC50 in test [1] is 4.31 µM (active); in [2], 5.27 µM (active); in test [3], 16.9 µM (active); in test [4], 60.2 µM (inactive); in test [5], 8.49 µM (active).

Take `O=C(O)CCCCCn1c(SCC(=O)c2ccc(O)c(O)c2)nc2ccsc2c1=O`: the AC50 in test [6] was 9 nM (active); at ORF 73, 2.89 µM (active); in test [9], 7.35 µM (active); in test [10], < 9 nM (active). For the same compound, the 50% effective concentration (EC50) in [7] is 61.6 µM (active); in [8], 270 µM (active). In addition, the IC50 on Leucine aminopeptidase was 12.8 µM (active).

Usually AC50 stands for the concentration giving half of the maximal activity seen. Broadly, the EC50 is the concentration needed to bring the measured effect to its halfway point.
